Experimental data taken from PubChem BioAssay AID2060508 (Molecular Pharmacology Branch, DTP, NCI, 2025).

Each compound was assayed on 454973-116-R2-J3-PDC spheroids, viability, % test/control (assay: Anticancer human tumor 454973-116-R2-J3-PDC patient-derived pancreatic carcinoma cell line growth inhibition [GQUAD]). Details: second compound 10 µM; first compound 0.0316 µM; active compounds read low; spheroids with HUVEC and MSC.
Excerpt: DNA G-quadruplex Stabilizer Agents in Combinations in Complex Spheroids
A high-throughput screen of multi-cell type tumor spheroids was designed to identify active combinations of DNA G-quadruplex stabilizer agents and targeted small molecules. Complex spheroids include a stromal component modeled by human endothelial cells (HUVEC) and fibroblasts modeled by human mesenchymal stem cells (MSCs). The concentration ranges selected for each drug and investigational agent were based upon clinically achievable concentrations if the clinical Cmax of the agent was known.
Compounds. The drugs and investigational agents: pidnarulex (CX-5461; NSC782164), APTO-253 (NSC789042), BRACO-19 (NSC847499), peposertib (NSC802822), ceralasertib (NSC780249), elimusertib (NSC800525), camonsertib (NSC841442), AZD-1390 (NSC803789), olaparib (NSC753686), talazoparib (NSC767125), ART-558 (NSC835418), sotorasib (NSC818433), MRTX-1133 (NSC836407), SN-38 (NSC673596), topotecan (NSC609699), etoposide (NSC141540), doxorubicin (NSC123127), gemcitabine (NSC613327), 5-fluorouracil (NSC19893), paclitaxel (NSC125973), vemurafenib (NSC761431), panobinostat (NSC761190), R-306465 (JNJ-16241199; NSC773264), adavosertib (NSC754352), TP-3654 (NSC805149), carboplatin (NSC241240), KSQ-4279 (NSC840948), and staurosporine (NSC755774) were obtained from the National Cancer Institute (NCI) Developmental Therapeutics Program Chemical Repository (34). The FDA-approved anticancer drug set is available from the NCI Developmental Therapeutics Program. […] The stock solutions were prepared in dimethyl sulfoxide (DMSO, Sigma-Aldrich, St. Louis, MO, cat. D2650) at 800-fold the tested concentration and stored at -70 degrees C prior to their use. All drugs and investigational agents were tested over a range starting from a high concentration at or near the clinical Cmax and decreasing in half-log increments. If the clinical Cmax for an agent had not been determined, the highest concentration tested was 10 microM.
2.3 Cell Culture. All cells were maintained in an incubator at 37 degrees C and 5% CO2 with 95% humidity. The PDC lines were cultured according to standard operating procedures established by the NCI PDMR. All PDCs were thawed and cultured in Matrigel-coated flasks prepared with a working solution of 1X Ham's F-12 nutrient mix, without supplementation (Invitrogen, cat. 11765054), 100 U/mL penicillin-streptomycin (Invitrogen, cat. 15140122), and 2.5% Matrigel (Corning Inc., cat. 354248) for the first three passages. The 857933-349-R-J2-PDC line was cultured in 6C/Colon 1B media, which includes advanced DMEM/F-12 (Thermo Fisher Scientific, cat. 12634028), 10 mM HEPES (Thermo Fisher Scientific, cat. 15630080), 1X GlutaMAX supplement (Thermo Fisher Scientific, cat. 35050061), 0.1 mg/mL primocin (InvivoGen, cat. ant-pm-2), 10% defined fetal bovine serum, heat inactivated (HyClone Laboratories Inc., cat. SH30070.03HI), 50% L-WRN conditioned media (ATCC, cat. CRL-3276), 1.25 mM N-Acetyl-L-cysteine (Sigma-Aldrich, cat. A9165), 10 mM nicotinamide (Sigma-Aldrich, cat. N0636), 1X B-27 supplement (Thermo Fisher Scientific, cat. 17504044), 1X N-2 supplement (Thermo Fisher Scientific, cat. 17502048), 10 microM Y-27632 dihydrochloride (Tocris Bioscience, cat. 1254), and 50 ng/mL human EGF recombinant protein (Thermo Fisher Scientific, cat. PHG0311). The 485176-168-R4-J1-PDC line was cultured in Panc media, which includes all 6C/Colon 1B media components plus 100 ng/mL human FGF-10 (Thermo Fisher Scientific, cat. 100-26), 500 nM SB-431542 (Selleckchem, cat. S1067), and gastrin (Tocris, cat. 3006).
[…]
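Note: spheroids exposed to compounds for seven days.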

| SMILES | viability, T/C [%] |
| --- | --- |
| O=C(c1cc(Cc2n[nH]c(=O)c3ccccc23)ccc1F)N1CCN(C(=O)C2CC2)CC1 + Cc1cnc(CNC(=O)c2c(=O)c3ccc(N4CCCN(C)CC4)nc3n3c2sc2ccccc23)cn1 | 0.27 |

Same assay, conditions: second compound 10 µM; first compound 0.1 µM; active compounds read low; spheroids with HUVEC and MSC

| SMILES | viability, T/C [%] |
| --- | --- |
| CC1COCCN1c1cc(C2(O)CC3CCC(C2)O3)c2cnn(-c3ccn[nH]3)c2n1 (stereo unspecified) + Cc1cnc(CNC(=O)c2c(=O)c3ccc(N4CCCN(C)CC4)nc3n3c2sc2ccccc23)cn1 | 0.16 |
| COc1ccc([C@@H](O)c2cc(-c3ncnc4cc(N5CCOCC5)ccc34)c(F)cc2Cl)nn1 + Cc1cnc(CNC(=O)c2c(=O)c3ccc(N4CCCN(C)CC4)nc3n3c2sc2ccccc23)cn1 | 0.73 |
| O=C(c1cc(Cc2n[nH]c(=O)c3ccccc23)ccc1F)N1CCN(C(=O)C2CC2)CC1 + Cc1cnc(CNC(=O)c2c(=O)c3ccc(N4CCCN(C)CC4)nc3n3c2sc2ccccc23)cn1 | 18.9 |

Same assay, conditions: second compound 10 µM; first compound 0.316 µM; active compounds read low; spheroids with HUVEC and MSC

| SMILES | viability, T/C [%] |
| --- | --- |
| CC1COCCN1c1cc(C2(O)CC3CCC(C2)O3)c2cnn(-c3ccn[nH]3)c2n1 (stereo unspecified) + Cc1cnc(CNC(=O)c2c(=O)c3ccc(N4CCCN(C)CC4)nc3n3c2sc2ccccc23)cn1 | 0.21 |
| COc1ccc([C@@H](O)c2cc(-c3ncnc4cc(N5CCOCC5)ccc34)c(F)cc2Cl)nn1 + Cc1cnc(CNC(=O)c2c(=O)c3ccc(N4CCCN(C)CC4)nc3n3c2sc2ccccc23)cn1 | 0.4 |
| O=C(c1cc(Cc2n[nH]c(=O)c3ccccc23)ccc1F)N1CCN(C(=O)C2CC2)CC1 + Cc1cnc(CNC(=O)c2c(=O)c3ccc(N4CCCN(C)CC4)nc3n3c2sc2ccccc23)cn1 | 15.1 |

Same assay, conditions: second compound 10 µM; first compound 1 µM; active compounds read low; spheroids with HUVEC and MSC

| SMILES | viability, T/C [%] |
| --- | --- |
| CC1COCCN1c1cc(C2(O)CC3CCC(C2)O3)c2cnn(-c3ccn[nH]3)c2n1 (stereo unspecified) + Cc1cnc(CNC(=O)c2c(=O)c3ccc(N4CCCN(C)CC4)nc3n3c2sc2ccccc23)cn1 | 0.15 |
| COc1ccc([C@@H](O)c2cc(-c3ncnc4cc(N5CCOCC5)ccc34)c(F)cc2Cl)nn1 + Cc1cnc(CNC(=O)c2c(=O)c3ccc(N4CCCN(C)CC4)nc3n3c2sc2ccccc23)cn1 | 0.39 |
| O=C(c1cc(Cc2n[nH]c(=O)c3ccccc23)ccc1F)N1CCN(C(=O)C2CC2)CC1 + Cc1cnc(CNC(=O)c2c(=O)c3ccc(N4CCCN(C)CC4)nc3n3c2sc2ccccc23)cn1 | 35.9 |

Same assay, conditions: second compound 10 µM; first compound 3.16 µM; active compounds read low; spheroids with HUVEC and MSC

| SMILES | viability, T/C [%] |
| --- | --- |
| CC1COCCN1c1cc(C2(O)CC3CCC(C2)O3)c2cnn(-c3ccn[nH]3)c2n1 (stereo unspecified) + Cc1cnc(CNC(=O)c2c(=O)c3ccc(N4CCCN(C)CC4)nc3n3c2sc2ccccc23)cn1 | 0.23 |
| COc1ccc([C@@H](O)c2cc(-c3ncnc4cc(N5CCOCC5)ccc34)c(F)cc2Cl)nn1 + Cc1cnc(CNC(=O)c2c(=O)c3ccc(N4CCCN(C)CC4)nc3n3c2sc2ccccc23)cn1 | 0.33 |
| O=C(c1cc(Cc2n[nH]c(=O)c3ccccc23)ccc1F)N1CCN(C(=O)C2CC2)CC1 + Cc1cnc(CNC(=O)c2c(=O)c3ccc(N4CCCN(C)CC4)nc3n3c2sc2ccccc23)cn1 | 0.4 |

Same assay, conditions: second compound 10 µM; first compound 10 µM; active compounds read low; spheroids with HUVEC and MSC

| SMILES | viability, T/C [%] |
| --- | --- |
| CC1COCCN1c1cc(C2(O)CC3CCC(C2)O3)c2cnn(-c3ccn[nH]3)c2n1 (stereo unspecified) + Cc1cnc(CNC(=O)c2c(=O)c3ccc(N4CCCN(C)CC4)nc3n3c2sc2ccccc23)cn1 | 0.19 |
| COc1ccc([C@@H](O)c2cc(-c3ncnc4cc(N5CCOCC5)ccc34)c(F)cc2Cl)nn1 + Cc1cnc(CNC(=O)c2c(=O)c3ccc(N4CCCN(C)CC4)nc3n3c2sc2ccccc23)cn1 | 0.28 |
| O=C(c1cc(Cc2n[nH]c(=O)c3ccccc23)ccc1F)N1CCN(C(=O)C2CC2)CC1 + Cc1cnc(CNC(=O)c2c(=O)c3ccc(N4CCCN(C)CC4)nc3n3c2sc2ccccc23)cn1 | 0.28 |
